In patent publication US11884710B2, “Peptide compounds and methods of use in wound healing” (priority 2013, dated 2024):

Test system: Pseudomonas aeruginosa ATCC 27853
Test: In vitro bactericidal assay, P. aeruginosa ATCC 27853 (FIGS. 12-14)
Assay type: cell-based
Details: for activity in in vitro killing assays, in words / reduction of the CFU: FIG. 14; for reduction of the CFU: peptides at 150, 75, 37.5 μg/ml; for reduction of CFU/ml: highest peptide concentration
Method: (§1) Each of the test peptides was used at 25, 12.5 6.25, and 3.12 μM. The gentamicin was used at 4 μg/ml. 1×10^6/ml Pseudomonas aeruginosa ATCC® 27853™ (American Type Culture Collection, Manassas, Va.) were incubated with the peptides, negative buffer control (tryptone saline), and positive control gentamicin for 180 minutes at pH 7.2. 50 μl aliquots were plated out on agar plates and incubated overnight. Colony forming units were counted after overnight incubation and CFU/ml calculated.
as §1, with “12.5,” for “12.5”, “5.5.” for “7.2.”
FIG. 14 is a comparison of bactericidal activity of CAP37 peptides 120-146WR (SEQ ID NO:30), 120-146WH (SEQ ID NO:31), 120-146QR (SEQ ID NO:28), 120-146QH (SEQ ID NO:29), 120-146QR-5RMP (SEQ ID NO:32), and 120-146QH-5RMP (SEQ ID NO:33) for Pseudomonas aeruginosa ATCC® 27853™ (American Type Culture Collection, Manassas, Va.). 1×10^6/ml Pseudomonas aeruginosa ATCC® 27853™ were incubated with the peptides at 150, 75, and 37.5 μg/ml and negative buffer control (tryptone saline) for 180 minutes at pH 5.5. 50 μl aliquots were plated out on agar plates and incubated overnight. Colony forming units were counted after overnight incubation and CFU/ml calculated.
For FIGS. 10-13, in vitro bactericidal assays were performed using a starting inoculum of 1×10^6 CFU/ml of the bacterial suspension. The CFU remaining at the end of the 60-180 minute incubation was determined, and the data was plotted as log reduction in CFU/ml.
In particular, each of the test peptides (CAP37 peptides 120-146WR, 120-146WH, and 95-122 (SEQ ID NOS:30, 31, and 26, respectively)) was used at 25, 12.5, 6.25, and 3.12 μM. Gentamicin was used at 4 μg/ml. 1×10^6/ml Acinetobacter baumannii ATCC® BAA-747™ or Pseudomonas aeruginosa ATCC® 27853™ (American Type Culture Collection, Manassas, Va.) were incubated with the peptides, negative buffer control (tryptone saline), and positive control gentamicin at pH 5.5 or 7.2. A 60 minute incubation was used for Acinetobacter baumannii ATCC® BAA-747™, while a 180 minute incubation was used for Pseudomonas aeruginosa ATCC® 27853™. 50 μl aliquots were plated out on agar plates and incubated overnight. Colony forming units were counted after overnight incubation and CFU/ml calculated.
For FIG. 14, 1×10^6/ml Pseudomonas aeruginosa ATCC® 27853™ were incubated with each of the test peptides (CAP37 peptides 120-146WR, 120-146WH, 120-146QR, 120-146QH, 120-146QR-5RMP, and 120-146QH-5RMP (SEQ ID NOS:30, 31, 28, 29, 32, and 33, respectively)) at 150, 75, and 37.5 μg/ml, or negative buffer control (tryptone saline), for 180 minutes at pH 5.5. 50 μl aliquots were plated out on agar plates and incubated overnight. Colony forming units were counted after overnight incubation and CFU/ml calculated.

[1] = pH 7.2, 180 minutes, 120-146WR/WH at 25 μM, 95-122 at 3.12-25 μM

| Sequence | activity in in vitro killing assays, in words (pH 5.5, 180 minutes) | reduction of the CFU (pH 5.5, 180 minutes) [logs] | bactericidal activity, in words [1] | reduction of CFU/ml (pH 7.2, 180 minutes) [logs] | bactericidal activity, in words (120-146WR at 25 μM, gentamicin 4 μg/ml) | bactericidal activity, in words (pH 5.5, 180 minutes, peptides 3.12-25 μM, gentamicin 4 μg/ml) |
| --- | --- | --- | --- | --- | --- | --- |
| GTRCQVAGWGSWHSGGRLSRFPRFVNV (derivative of peptide of CAP37 protein) [Peptide 120-146WH] | strongly active | 6 | as effective as the standard antibiotic gentamicin | 6 |  |  |
| GTRCQVAGWGSWRSGGRLSRFPRFVNV (derivative of peptide of Homo sapiens CAP37 protein) [Peptide 120-146WR] | strongly active | 6 | as effective as the standard antibiotic gentamicin | 6 | highly active |  |
| LDREANLTSSVTILPLPLQNATVEAGTR (listed as Homo sapiens) [Peptide 95-122] |  |  | not active |  |  | not active |
